This note sets out measurements from patent publication US7514582B2, “2′-substituted 1,1′-biphenyl-2-carboxamides, processes for their preparation, their use as medicaments, and pharmaceutical preparations comprising them” (Sanofi-Aventis Deutschland GmbH, priority 1999, dated 2009).

What is called melting point is the temperature of the solid-liquid transition. `O=C(NCCc1ccccc1)c1ccccc1-c1ccccc1CNS(=O)(=O)c1cccc(F)c1` [Example 3 e, 2′-(3-Fluorophenylsulfonylaminomethyl)biphenyl-2-carboxylic acid phenethylamide] showed a melting point of 153 °C.

`O=C(NCc1ccccc1-c1ccccc1C(=O)NCCc1ccccn1)c1ccccc1` [Example 4 b, 2′-(Benzoylaminomethyl)biphenyl-2-carboxylic acid 2-(2-pyridyl)ethylamide]: the melting point was found to be 135 °C.

Turning to `O=C(NCCc1ccccc1)c1ccccc1-c1ccccc1CNS(=O)(=O)c1cccc([N+](=O)[O-])c1` [Example 3 c, 2′-(3-Nitrophenylsulfonylaminomethyl)biphenyl-2-carboxylic acid phenethylamide], the melting point was found to be 145 °C.

Consider `O=C(NCCc1ccccn1)c1ccccc1-c1ccccc1CNS(=O)(=O)c1ccccc1` [Example 3 p], for which the melting point was 131 °C.

With `CC(=O)c1cccc(S(=O)(=O)NCc2ccccc2-c2ccccc2C(=O)NCc2ccccc2)c1` [Example 3 h, 2′-(3-Acetylphenylsulfonylaminomethyl)biphenyl-2-carboxylic acid benzylamide], the melting point is 182 °C.

`O=C(NCc1ccccc1)c1ccccc1-c1ccccc1CNS(=O)(=O)c1cccc(C(F)(F)F)c1` [Example 3 g, 2′-(3-Trifluoromethylphenylsulfonylaminomethyl)biphenyl-2-carboxylic acid benzylamide] had a melting point of 126 °C.

Compound `O=C(NCCc1ccccn1)c1ccccc1-c1ccccc1CNS(=O)(=O)c1ccc(F)cc1` [Example 3 q, 2′-(4-Fluorophenylsulfonylaminomethyl)biphenyl-2-carboxylic acid 2-(2-pyridyl)ethylamide] returned a melting point of 130 °C.

On to `O=C(NCCc1ccccc1)c1ccccc1-c1ccccc1CNS(=O)(=O)c1cccc(C(F)(F)F)c1` [Example 3 a, 2′-(3-Trifluoromethylphenylsulfonylaminomethyl)biphenyl-2-carboxylic acid phenethylamide], for which the melting point is 145 °C.

Turning to `CC(C)CCNC(=O)c1ccccc1-c1ccccc1CNS(=O)(=O)c1ccccc1` [Example 3 l, 2′-(Phenylsulfonylaminomethyl)biphenyl-2-carboxylic acid (3-methyl butyl)amide], the melting point amounted to 127 °C.

The compound `CC(C)CCNC(=O)c1ccccc1-c1ccccc1CNC(=O)c1ccccc1` [Example 4 a, 2′-(Benzoylaminomethyl)biphenyl-2-carboxylic acid (3-methylbutyl)amide] registered a melting point of 147 °C.

For the compound `O=C(NCc1ccccc1)c1ccccc1-c1ccccc1CNS(=O)(=O)c1cccc([N+](=O)[O-])c1` [Example 3 i, 2′-(3-Nitrophenylsulfonylaminomethyl)biphenyl-2-carboxylic acid benzylamide], the melting point came out at 175 °C.

As for `CC(C)CCNC(=O)c1ccccc1-c1ccccc1CNC(=O)OCc1ccccc1` [Example 2 b, 2′-(Benzyloxycarbonylaminomethyl)biphenyl-2-carboxylic acid (3-methylbutyl)amide], the melting point came out at 112 °C.

For the compound `O=C(NCc1ccccc1-c1ccccc1C(=O)NCCc1ccccn1)Nc1ccccc1` [Example 5 b, 2′-[(3-Phenylureido)methyl]biphenyl-2-carboxylic acid 2-(2-pyridyl)ethylamide], the melting point came out at 99 °C.

For `CC(C)CCNC(=O)c1ccccc1-c1ccccc1CNS(=O)(=O)c1ccc(F)cc1` [Example 3 m, 2′-(4-Fluorophenylsulfonylaminomethyl)biphenyl-2-carboxylic acid (3-methylbutyl)amide], the melting point worked out at 149 °C.

Turning to `CC(C)CCNC(=O)c1ccccc1-c1ccccc1CNC(=O)Nc1ccccc1` [Example 5 a, 2′-[(3-Phenylureido)methyl]biphenyl-2-carboxylic acid (3-methylbutyl)amide], the melting point was determined as 194 °C.

As to `CC(C)CCNC(=O)c1ccccc1-c1ccccc1CNS(=O)(=O)c1cccc(F)c1` [Example 3 n, 2′-(3-Fluorophenylsulfonylaminomethyl)biphenyl-2-carboxylic acid (3-methylbutyl)amide], the melting point came to 141 °C.

In turn, `CC(=O)c1ccc(S(=O)(=O)NCc2ccccc2-c2ccccc2C(=O)NCCc2ccccc2)cc1` [Example 3 b, 2′-(4-Acetylphenylsulfonylaminomethyl)biphenyl-2-carboxylic acid phenethylamide] returned a melting point of 145 °C.

In turn, `CCc1ccc(S(=O)(=O)NCc2ccccc2-c2ccccc2C(=O)NCCc2ccccc2)cc1` [Example 3 f, 2′-(4-Ethylphenylsulfonylaminomethyl)biphenyl-2-carboxylic acid phenethylamide] yielded a melting point of 163 °C.
